Laboratory results: ChEMBL document CHEMBL3124792, “Discovery and preclinical characterization of the cyclopropylindolobenzazepine BMS-791325, a potent allosteric inhibitor of the hepatitis C virus NS5B polymerase” (J Med Chem, 2014)
Values after ≈ are worked out from the molar mass of the structure shown.

Assays:
[1] = Half life in dog liver microsomes; assay type: ADME, Canis lupus familiaris
[2] = Half life in rat at 10 mg/kg, po; settings: in vivo
[3] = Half life in rat liver microsomes; assay type: ADME
CYP2C19 = CYP2C19 (Homo sapiens, UniProt P33261); assay: Inhibition of CYP2C19 (unknown origin)
CYP2C19, sequence (P33261 whole entry): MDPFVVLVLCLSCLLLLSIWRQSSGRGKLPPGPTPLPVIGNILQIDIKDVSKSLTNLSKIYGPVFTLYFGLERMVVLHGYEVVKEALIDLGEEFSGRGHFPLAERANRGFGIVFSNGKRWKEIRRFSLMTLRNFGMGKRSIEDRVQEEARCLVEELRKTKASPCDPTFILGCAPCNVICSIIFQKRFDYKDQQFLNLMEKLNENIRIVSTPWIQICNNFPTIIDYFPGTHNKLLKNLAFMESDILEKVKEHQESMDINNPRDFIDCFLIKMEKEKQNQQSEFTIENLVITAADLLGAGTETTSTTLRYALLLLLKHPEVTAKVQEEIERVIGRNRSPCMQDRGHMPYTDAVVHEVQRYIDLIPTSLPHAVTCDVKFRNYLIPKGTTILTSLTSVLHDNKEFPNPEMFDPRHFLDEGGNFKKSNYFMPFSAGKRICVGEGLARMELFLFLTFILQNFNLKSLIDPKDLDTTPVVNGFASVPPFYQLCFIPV

CYP2C9 = CYP2C9 (Homo sapiens, UniProt P11712); assay: Inhibition of CYP2C9 (unknown origin)
CYP2C9, sequence (P11712 whole entry): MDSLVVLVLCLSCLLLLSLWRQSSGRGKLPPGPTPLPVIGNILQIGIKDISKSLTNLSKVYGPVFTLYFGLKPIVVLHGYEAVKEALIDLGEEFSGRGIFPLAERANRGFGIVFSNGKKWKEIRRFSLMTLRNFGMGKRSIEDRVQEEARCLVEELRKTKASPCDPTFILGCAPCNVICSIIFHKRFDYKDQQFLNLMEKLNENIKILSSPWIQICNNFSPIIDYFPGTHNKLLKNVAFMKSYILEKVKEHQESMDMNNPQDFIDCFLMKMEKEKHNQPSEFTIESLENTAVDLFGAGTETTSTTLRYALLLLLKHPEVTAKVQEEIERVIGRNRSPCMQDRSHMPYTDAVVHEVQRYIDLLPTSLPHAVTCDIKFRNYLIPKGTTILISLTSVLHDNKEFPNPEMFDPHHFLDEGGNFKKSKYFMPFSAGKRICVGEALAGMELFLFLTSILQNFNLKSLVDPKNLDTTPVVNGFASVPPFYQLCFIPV

Homo sapiens = organism: Homo sapiens; assay: Inhibition of human phosphodiesterase 4 at 10 uM relative to control
[4] = Cytotoxicity against human HuH7 cells by Alamar blue assay; assay type: cell-based; settings: Huh-7 cells
[5] = Aqueous solubility of the compound at pH 2.2; settings: buffer
[6] = tested on: Human immunodeficiency virus; assay: Antiviral activity against Human immunodeficiency virus; assay type: functional, organism-based; settings: Human immunodeficiency virus 1
[7] = Cmax in rat at 5 mg/kg, iv; assay type: ADME, organism-based; design: dose 5 mg/kg, route intravenous; settings: in vivo
[8] = tested on: Bovine viral diarrhea virus 1; assay: Antiviral activity against Bovine viral diarrhea virus; assay type: functional, organism-based; settings: Bovine viral diarrhea virus isolates and strains
Rattus norvegicus = assay: AUC (0 to infinity) in rat at 5 mg/kg, iv; assay type: ADME, organism-based, Plasma; design: time infinity, dose 5 mg/kg, route intravenous; settings: in vivo
[9] = Half life in rat at 5 mg/kg, iv; settings: in vivo
[10] = Inhibition of Hepatitis C virus genotype 3a NS5B; design: species or system Hepatitis C virus subtype 3a
Coxsackievirus = assay: Antiviral activity against Coxsackievirus; assay type: functional, organism-based
[11] = Half life in cynomolgus monkey liver microsomes; assay type: ADME, Macaca fascicularis, Microsome
[12] = Tmax in rat at 10 mg/kg, po; assay type: ADME, organism-based; design: dose 10 mg/kg, route oral; settings: in vivo
Coronaviridae = assay: Antiviral activity against Coronavirus; assay type: functional, organism-based
CYP2D6 = CYP2D6 (Homo sapiens, UniProt P10635); assay: Inhibition of CYP2D6 (unknown origin)
CYP2D6, sequence (P10635 whole entry): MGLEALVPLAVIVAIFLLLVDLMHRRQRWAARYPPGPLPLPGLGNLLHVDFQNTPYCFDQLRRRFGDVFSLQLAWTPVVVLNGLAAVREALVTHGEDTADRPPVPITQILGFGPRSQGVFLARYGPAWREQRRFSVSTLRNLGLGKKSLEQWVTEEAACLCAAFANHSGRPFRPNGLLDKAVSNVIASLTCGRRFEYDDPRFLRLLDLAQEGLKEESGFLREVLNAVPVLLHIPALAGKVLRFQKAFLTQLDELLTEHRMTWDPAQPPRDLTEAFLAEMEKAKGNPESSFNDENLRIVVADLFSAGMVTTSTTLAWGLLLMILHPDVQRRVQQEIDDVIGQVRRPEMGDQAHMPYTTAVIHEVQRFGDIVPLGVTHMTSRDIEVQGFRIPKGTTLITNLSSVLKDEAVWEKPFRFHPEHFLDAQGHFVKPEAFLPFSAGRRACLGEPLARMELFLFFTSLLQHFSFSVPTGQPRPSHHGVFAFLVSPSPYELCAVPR

[13] = biological target: T1, Voltage-gated inwardly rectifying potassium channel KCNH2 (Homo sapiens, UniProt Q12809); assay: Inhibition of human ERG by fluorescence-based thallium flux assay
T1 sequence (Q12809 whole entry): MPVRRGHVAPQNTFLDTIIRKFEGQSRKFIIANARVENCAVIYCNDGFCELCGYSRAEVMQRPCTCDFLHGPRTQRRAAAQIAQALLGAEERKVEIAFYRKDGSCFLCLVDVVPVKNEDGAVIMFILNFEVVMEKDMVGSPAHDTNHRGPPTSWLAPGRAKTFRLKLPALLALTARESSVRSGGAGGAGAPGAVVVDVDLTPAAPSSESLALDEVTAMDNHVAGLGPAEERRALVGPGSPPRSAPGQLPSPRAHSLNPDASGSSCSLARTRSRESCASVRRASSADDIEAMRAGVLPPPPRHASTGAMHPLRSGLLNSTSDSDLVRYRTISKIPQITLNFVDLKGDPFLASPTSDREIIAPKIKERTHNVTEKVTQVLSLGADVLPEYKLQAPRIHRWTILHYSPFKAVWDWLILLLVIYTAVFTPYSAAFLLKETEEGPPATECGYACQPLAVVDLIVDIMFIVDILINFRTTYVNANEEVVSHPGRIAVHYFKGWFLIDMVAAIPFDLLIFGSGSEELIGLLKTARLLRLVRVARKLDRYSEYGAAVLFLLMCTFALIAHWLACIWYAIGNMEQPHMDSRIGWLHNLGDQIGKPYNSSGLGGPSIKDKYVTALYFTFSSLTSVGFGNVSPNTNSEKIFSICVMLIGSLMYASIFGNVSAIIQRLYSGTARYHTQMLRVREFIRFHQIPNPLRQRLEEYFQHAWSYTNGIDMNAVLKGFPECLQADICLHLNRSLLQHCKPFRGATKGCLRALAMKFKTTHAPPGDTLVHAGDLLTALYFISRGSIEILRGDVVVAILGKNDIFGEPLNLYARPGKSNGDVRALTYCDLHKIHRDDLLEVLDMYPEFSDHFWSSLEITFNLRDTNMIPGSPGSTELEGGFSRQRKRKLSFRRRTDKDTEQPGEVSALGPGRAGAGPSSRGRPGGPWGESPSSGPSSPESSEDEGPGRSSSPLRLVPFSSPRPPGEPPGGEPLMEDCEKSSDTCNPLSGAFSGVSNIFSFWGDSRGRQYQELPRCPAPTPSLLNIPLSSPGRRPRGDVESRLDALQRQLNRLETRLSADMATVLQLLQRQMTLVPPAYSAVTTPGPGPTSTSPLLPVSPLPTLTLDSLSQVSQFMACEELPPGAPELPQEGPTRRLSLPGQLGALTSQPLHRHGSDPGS

[14] = Protein binding in human serum; assay type: ADME, cell-free; settings: read-out: PB (converted)
Hepatitis C virus [15] = assay: Antiviral activity against Hepatitis C virus H77c genotype 1a infected in human HuH7 cells after 3 days by FRET assay; assay type: functional, organism-based, Hepacivirus hominis; settings: genotype 1a H77, Huh-7, 72 h
in vivo = settings: rat, po, 10 mg/kg
[16] = Permeability of the compound at pH 7.4 by PAMPA; assay type: physicochemical; settings: read-out: permeability
[17] = tested on: unidentified influenza virus; assay: Antiviral activity against Influenza virus; assay type: functional, organism-based
[18] = Inhibition of human phosphodiesterase 4 by functional assay
[19] = Solubility of the compound in amorphous form in phosphate buffer at pH 6.5; assay type: physicochemical
[20] = Inhibition of Hepatitis C virus genotype 1b NS5B; design: species or system Hepatitis C virus subtype 1b
[21] = AUC (0 to infinity) in rat at 10 mg/kg, po; assay type: ADME, organism-based; design: time infinity, dose 10 mg/kg, route oral; settings: plasma
Enterovirus C = assay: Antiviral activity against Poliovirus; assay type: functional, organism-based
PXR (NR1I2) = biological target: T2, PXR (NR1I2) (Homo sapiens, UniProt O75469); assay: Transactivation of human PXR expressed in human HepG2 cells at 5.56 uM by luciferase reporter gene assay relative to control; assay type: cell-based; settings: HepG2 cells that express human PXR, read-out: %max
T2 sequence (O75469 whole entry): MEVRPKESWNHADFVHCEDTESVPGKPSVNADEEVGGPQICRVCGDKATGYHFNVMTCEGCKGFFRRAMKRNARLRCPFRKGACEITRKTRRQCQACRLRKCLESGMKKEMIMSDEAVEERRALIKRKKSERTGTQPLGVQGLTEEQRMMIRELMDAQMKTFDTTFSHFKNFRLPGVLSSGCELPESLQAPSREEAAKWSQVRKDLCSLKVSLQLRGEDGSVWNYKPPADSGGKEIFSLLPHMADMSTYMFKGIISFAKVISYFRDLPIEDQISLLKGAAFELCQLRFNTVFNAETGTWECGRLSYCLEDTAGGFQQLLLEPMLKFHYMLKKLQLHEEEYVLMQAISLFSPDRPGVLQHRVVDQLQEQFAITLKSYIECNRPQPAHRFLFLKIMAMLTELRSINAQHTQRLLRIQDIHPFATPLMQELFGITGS

CYP1A2 = CYP1A2 (Homo sapiens, UniProt P05177); assay: Inhibition of CYP1A2 (unknown origin)
CYP1A2, sequence (P05177 whole entry): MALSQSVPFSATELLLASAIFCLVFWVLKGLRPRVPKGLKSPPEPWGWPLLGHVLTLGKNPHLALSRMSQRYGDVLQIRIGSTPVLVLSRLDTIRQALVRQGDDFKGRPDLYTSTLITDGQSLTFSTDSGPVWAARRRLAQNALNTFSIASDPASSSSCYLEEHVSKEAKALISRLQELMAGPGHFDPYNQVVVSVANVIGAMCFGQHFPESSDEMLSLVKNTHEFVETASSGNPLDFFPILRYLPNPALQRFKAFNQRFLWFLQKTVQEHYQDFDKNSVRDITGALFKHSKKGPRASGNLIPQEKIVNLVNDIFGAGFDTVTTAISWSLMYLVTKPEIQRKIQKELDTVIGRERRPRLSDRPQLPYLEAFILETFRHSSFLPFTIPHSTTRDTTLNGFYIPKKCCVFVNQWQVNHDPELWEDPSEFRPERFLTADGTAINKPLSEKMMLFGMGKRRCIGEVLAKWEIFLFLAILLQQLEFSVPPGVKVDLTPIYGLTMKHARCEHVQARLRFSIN

Liver microsome [22] = settings: human, microsomes
[23] = Inhibition of Hepatitis C virus genotype 4a NS5B; design: species or system Hepatitis C virus subtype 4a
[24] = Cmax in rat at 10 mg/kg, po; assay type: ADME, organism-based; design: dose 10 mg/kg, route oral; settings: in vivo
Cytochrome P450 3A4 = Cytochrome P450 3A4 (Homo sapiens, UniProt P08684); assay: Inhibition of CYP3A4 (unknown origin); assay type: ADME
Cytochrome P450 3A4, sequence (P08684 whole entry): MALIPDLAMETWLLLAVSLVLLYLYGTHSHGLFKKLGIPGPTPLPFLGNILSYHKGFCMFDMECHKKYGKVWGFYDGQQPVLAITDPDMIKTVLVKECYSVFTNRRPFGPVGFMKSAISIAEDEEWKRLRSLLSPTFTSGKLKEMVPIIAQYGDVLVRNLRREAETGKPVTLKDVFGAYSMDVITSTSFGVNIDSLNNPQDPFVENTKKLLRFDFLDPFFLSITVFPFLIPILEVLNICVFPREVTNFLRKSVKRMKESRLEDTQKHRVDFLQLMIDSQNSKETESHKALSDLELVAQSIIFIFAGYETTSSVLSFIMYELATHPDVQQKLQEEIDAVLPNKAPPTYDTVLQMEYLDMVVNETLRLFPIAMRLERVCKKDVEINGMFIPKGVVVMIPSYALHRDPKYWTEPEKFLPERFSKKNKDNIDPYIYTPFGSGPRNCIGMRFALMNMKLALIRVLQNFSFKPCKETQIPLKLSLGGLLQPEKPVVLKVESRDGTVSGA

Hepatitis C virus [25] = assay: Antiviral activity against Hepatitis C virus Con1 genotype 1b infected in human HuH7 cells after 3 days by FRET assay in presence of 40% human serum; assay type: functional, organism-based, Hepacivirus hominis; settings: isolate Con1, Huh-7, 72 h
[26] = Aqueous solubility of the compound at pH 6.5; settings: buffer
[27] = Half life in human liver microsomes; assay type: ADME
Hepatitis C virus [28] = assay: Antiviral activity against Hepatitis C virus genotype 2a by cell-based assay; assay type: functional, organism-based, Hepacivirus hominis
Enterovirus = assay: Antiviral activity against Rhinovirus; assay type: functional, organism-based
[29] = Inhibition of Hepatitis C virus genotype 1a NS5B; design: species or system Hepatitis C virus subtype 1a
[30] = Aqueous solubility of the compound at pH 7.8; settings: buffer
[31] = Volume of distribution in rat at 5 mg/kg, iv; settings: in vivo
Hepatitis C virus [32] = assay: Antiviral activity against Hepatitis C virus genotype 1a by cell-based assay; assay type: functional, organism-based, Hepacivirus hominis; settings: subtype 1a
Liver microsome [33] = settings: rat, microsomes
[34] = biological target: T1, Voltage-gated inwardly rectifying potassium channel KCNH2; assay: Inhibition of human ERG by patch-clamp assay
[35] = Inhibition of HCV Con1 genotype 1b recombinant wild-type NS5B polymerase-mediated incorporation of radiolabeled nucleotides by scintillation proximity assay; design: species or system Hepatitis C virus (isolate Con1)
[36] = Inhibition of Hepatitis C virus genotype 5a NS5B; design: species or system Hepatitis C virus subtype 5a
[37] = Drug uptake in rat liver at 10 mg/kg, po after 4 hrs; assay type: ADME, organism-based; design: dose 10 mg/kg, route oral; settings: read-out: Drug uptake
[38] = Plasma concentration in rat at 5 mg/kg, iv after 4 hrs; assay type: ADME, organism-based; design: dose 5 mg/kg, route intravenous
[39] = Plasma concentration in rat at 10 mg/kg, po after 4 hrs; assay type: ADME, organism-based; design: dose 10 mg/kg, route oral
[40] = AUC (0 to 4 hrs) in rat at 5 mg/kg, iv; assay type: ADME, organism-based; design: time < 4 hr, dose 5 mg/kg, route intravenous; settings: plasma
[41] = AUC (0 to 4 hrs) in rat at 10 mg/kg, po; assay type: ADME, organism-based; design: time < 4 hr, dose 10 mg/kg, route oral; settings: plasma
[42] = biological target: T3, Nuclear receptor subfamily 1 group I member 2 (Homo sapiens, UniProt O75469); assay: Transactivation of human PXR expressed in human HepG2 cells by luciferase reporter gene assay; assay type: cell-based
T3 sequence (O75469 whole entry): T2 sequence (O75469 whole entry)

[43] = Plasma clearance in rat at 5 mg/kg, iv; assay type: ADME, organism-based; design: dose 5 mg/kg, route intravenous
Hepatitis C virus [44] = assay: Antiviral activity against Hepatitis C virus Con1 genotype 1b infected in human HuH7 cells after 3 days by FRET assay; assay type: functional, organism-based, Hepacivirus hominis; settings: isolate Con1, Huh-7, 72 h
[45] = Drug uptake in rat liver at 5 mg/kg, iv after 4 hrs; assay type: ADME, organism-based; design: dose 5 mg/kg, route intravenous; settings: read-out: Drug uptake

COc1ccc2c(c1)[C@@H]1C[C@]1(C(=O)N1[C@@H]3CC[C@H]1CN(C)C3)Cn1c-2c(C2CCCCC2)c2ccc(C(=O)NS(=O)(=O)N(C)C)cc21 [BECLABUVIR]
half-life [1]: > 3.33 h
half-life [2]: 8.3 h
half-life [3]: > 3.33 h
IC50 (CYP2C19): > 40000 nM
IC50 (CYP2C9): > 40000 nM
inhibition (Homo sapiens): 57%
CC50 [4]: > 10000 nM
solubility [5]: > 1600 µg/mL
EC50 [6]: > 14000 nM
Cmax [7]: 12.1 µM
EC50 [8]: > 14000 nM
AUC (Rattus norvegicus): 30 µM·h
half-life [9]: 11.5 h
IC50 [10]: 2 nM
EC50 (Coxsackievirus): > 14000 nM
half-life [11]: 0.383 h
Tmax [12]: 5.3 h
EC50 (Coronaviridae): > 14000 nM
IC50 (CYP2D6): > 40000 nM
IC50 [13]: 24500 nM
fraction unbound [14]: 0.02
EC50 (Hepatitis C virus [15]): 3 nM
bioavailability (in vivo): 66%
Papp [16]: 64 ×10⁻⁶ cm/s
EC50 [17]: > 14000 nM
IC50 [18]: 10000 nM
solubility [19]: 29 µg/mL (≈ 43.9 µM)
IC50 [20]: 4 nM
AUC(0-inf) [21]: 39.3 µM·h
EC50 (Enterovirus C): > 14000 nM
activity at 5.56 µM (PXR (NR1I2)): 8.1%
IC50 (CYP1A2): > 40000 nM
Stability (Liver microsome [22]): 90%
IC50 [23]: 20 nM
Cmax [24]: 3.26 µM
IC50 (Cytochrome P450 3A4): > 40000 nM
EC50 (Hepatitis C virus [25]): 28 nM
solubility [26]: 20 µg/mL (≈ 30.3 µM)
half-life [27]: 0.883 h
EC50 (Hepatitis C virus [28]): 87 nM
EC50 (Enterovirus): > 14000 nM
IC50 [29]: 3 nM
solubility [30]: > 1600 µg/mL
Vd [31]: 2.7 L/kg
EC50 (Hepatitis C virus [32]): 3 nM
Stability (Liver microsome [33]): 99%
IC50 [34]: 12400 nM
IC50 [35]: 20 nM
IC50 [36]: 5 nM

COc1ccc2c(c1)C1CC1(C(=O)N1CC(C)(O)C1)Cn1c-2c(C2CCCCC2)c2ccc(C(=O)NS(=O)(=O)N(C)C)cc21 (racemic)
concentration at 4 h [37]: 3.7 µM
concentration at 4 h [38]: 0.029 µM
concentration at 4 h [39]: 0.025 µM
CC50 [4]: > 10000 nM
AUC(0-t) at 4 h [40]: 9.8 µM·h
AUC(0-t) at 4 h [41]: 0.139 µM·h
EC50 (Hepatitis C virus [15]): 14 nM
EC50 [42]: > 50000 nM
Papp [16]: 30 ×10⁻⁶ cm/s
clearance [43]: 14 mL/min/kg
solubility [19]: 93 µg/mL (≈ 150 µM)
EC50 (Hepatitis C virus [44]): 20 nM
Stability (Liver microsome [22]): 81%
EC50 (Hepatitis C virus [25]): 56 nM
concentration at 4 h [45]: 9.6 µM
Stability (Liver microsome [33]): 85%
